Measured values reported in patent US8148531B2 (Chroma Therapeutics Ltd., priority 2005, dated 2012).

Assays:
Format in all cases: cell-based
[1] = system: U937 cell line; test: Cell inhibition assay (SRB cell viability), U937; details: Homo sapiens, U-937, IC50 range class, 72 h, read-out: Inhibitor Activity vs U937 cell line
Procedure: (§1) The corresponding cancer cell lines (U937, HCT 116 and HUT) growing in log phase were harvested and seeded at 1000 cells/well (200 ul final volume) into 96-well tissue culture plates. Following 24 h of cell growth cells were treated with compounds (final concentration of 20 uM). Plates were then re-incubated for a further 72 h before a sulphorhodamine B (SRB) cell viability assay was conducted according to Skehan 1990 J Natl Canc Inst 82, 1107-1112.
(§2) Data were expressed as a percentage inhibition of the control, measured in the absence of inhibitor, as follows: — % inhibition=100−((S^i/S^o)×100) where S^i is the signal in the presence of inhibitor and S^o is the signal in the presence of DMSO.
(§3) IC50 values were determined by non-linear regression analysis, after fitting the results of eight data points to the equation for sigmoidal dose response with variable slope (% activity against log concentration of compound), using Graphpad Prism software.

[2] = system: HCT 116 cell line; test: Cell inhibition assay (SRB cell viability), HCT 116; details: Homo sapiens, IC50 range class, 72 h, read-out: Inhibitor Activity vs HCT 116 cell line
Procedure: as §1, §2, §3

[3] = system: HUT cell line; test: Cell inhibition assay (SRB cell viability), HUT; details: IC50 range class, 72 h, read-out: Inhibitor Activity vs HUT cell line
Procedure: as §1, §2, §3

IC50 [1] [nM]	IC50 [2] [nM]	SMILES	IC50 [3] [nM]
< 1000	< 1000	COc1cc2c(Oc3ccc(NC(=O)c4ccc(F)cc4F)cc3)ccnc2cc1OCC[C@H](N)C(=O)OC1CCCC1 [Example 65, (S)-2-Amino-4-{4-[4-(2,4-difluoro-benzoylamino)-phenoxy]-6-methoxy-quinolin-7-yloxy}-butyric acid cyclopentyl ester]	< 1000
< 1000	< 1000	COc1cc2c(Oc3ccc(NC(=O)c4ccc(Cl)cc4)cc3)ccnc2cc1OCC[C@H](N)C(=O)OC1CCCC1 [Example 66, (S)-2-Amino-4-{4-[4-(4-chloro-benzoylamino)-phenoxy]-6-methoxy-quinolin-7-yloxy}-butyric acid cyclopentyl ester]	< 1000
< 1000	< 1000	COc1cc2c(Oc3ccc(NC(=O)c4cc(C(F)(F)F)ccc4F)cc3)ccnc2cc1OCC[C@H](N)C(=O)OC1CCCC1 [Example 68, (S)-2-Amino-4-{4-[4-(2-fluoro-5-trifluoromethyl-benzoylamino)-phenoxy]-6-methoxy-quinolin-7-yloxy}-butyric acid cyclopentyl ester]	< 1000
< 1000	< 1000	COc1cc2c(Oc3ccc(NC(=O)c4ccc(OC(F)(F)F)cc4)cc3)ccnc2cc1OCC[C@H](N)C(=O)OC1CCCC1 [Example 70, (S)-2-Amino-4-{6-methoxy-4-[4-(4-trifluoromethoxy-benzoylamino)-phenoxy]-quinolin-7-yloxy}-butyric acid cyclopentyl ester]	< 1000
< 1000	< 1000	COc1cc2c(Oc3ccc(NC(=O)C4=C(C)c5ccccc5C4)cc3)ccnc2cc1OCC[C@H](N)C(=O)OC1CCCC1 [Example 72, (S)-2-Amino-4-(6-methoxy-4-{4-[(3-methyl-1H-indene-2-carbonyl)-amino]-phenoxy}-quinolin-7-yloxy)-butyric acid cyclopentyl ester]	< 1000
1000 to 5000	> 5000	COc1cc2c(Oc3ccc(NS(=O)(=O)c4ccccc4)cc3)ccnc2cc1OCC[C@H](N)C(=O)OC1CCCC1 [Example 73, (S)-2-Amino-4-[4-(4-benzenesulfonylamino-phenoxy)-6-methoxy-quinolin-7-yloxy]-butyric acid cyclopentyl ester]	1000 to 5000
< 1000	< 1000	COc1cc2c(Oc3ccc(NC(=O)c4cccs4)cc3)ccnc2cc1OCC[C@H](N)C(=O)OC1CCCC1 [Example 75, (S)-2-Amino-4-(6-methoxy-4-{4-[(thiophene-2-carbonyl)-amino]-phenoxy}-quinolin-7-yloxy)-butyric acid cyclopentyl ester]	< 1000
< 1000	< 1000	COc1cc2c(Oc3ccc(CC(=O)Nc4ccc(C(F)(F)F)cc4)cc3)ccnc2cc1OCC[C@H](N)C(=O)OC1CCCC1 [Example 79, (S)-2-Amino-4-(6-methoxy-4-{4-[(4-trifluoromethyl-phenylcarbamoyl)-methyl]-phenoxy}-quinolin-7-yloxy)-butyric acid cyclopentyl ester]	< 1000
< 1000	< 1000	COc1cc2c(Oc3ccc(CC(=O)Nc4ccccc4)cc3)ccnc2cc1OCC[C@H](N)C(=O)OC1CCCC1 [Example 80, (S)-2-Amino-4-[6-methoxy-4-(4-phenylcarbamoylmethyl-phenoxy)-quinolin-7-yloxy]-butyric acid cyclopentyl ester]	< 1000
< 1000	< 1000	COc1cc2c(Oc3ccc(CC(=O)Nc4ccccc4F)cc3)ccnc2cc1OCC[C@H](N)C(=O)OC1CCCC1 [Example 82, (S)-2-Amino-4-(4-{4-[(2-fluoro-phenylcarbamoyl)-methyl]-phenoxy}-6-methoxy-quinolin-7-yloxy)-butyric acid cyclopentyl ester]	< 1000
< 1000	< 1000	COc1cc2c(Oc3ccc(CC(=O)Nc4cccc(F)c4)cc3)ccnc2cc1OCC[C@H](N)C(=O)OC1CCCC1 [Example 84, (S)-2-Amino-4-(4-{4-[(3-fluoro-phenylcarbamoyl)-methyl]-phenoxy}-6-methoxy-quinolin-7-yloxy)-butyric acid cyclopentyl ester]	< 1000
< 1000	< 1000	COc1cc2c(Oc3ccc(CC(=O)Nc4ccc(F)cc4)cc3)ccnc2cc1OCC[C@H](N)C(=O)OC1CCCC1 [Example 86, (S)-2-Amino-4-(4-{4-[(4-fluoro-phenylcarbamoyl)-methyl]-phenoxy}-6-methoxy-quinolin-7-yloxy)-butyric acid cyclopentyl ester]	< 1000
< 1000	< 1000	COc1cc2c(Oc3ccc(CC(=O)Nc4ccc(F)cc4F)cc3)ccnc2cc1OCC[C@H](N)C(=O)OC1CCCC1 [Example 88, (S)-2-Amino-4-(4-{4-[(2,4-difluoro-phenylcarbamoyl)-methyl]-phenoxy}-6-methoxy-quinolin-7-yloxy)-butyric acid cyclopentyl ester]	< 1000
< 1000	< 1000	COc1ccc(NC(=O)Cc2ccc(Oc3ccnc4cc(OCC[C@H](N)C(=O)OC5CCCC5)c(OC)cc34)cc2)cc1 [Example 90, (S)-2-Amino-4-(6-methoxy-4-{4-[(4-methoxy-phenylcarbamoyl)-methyl]-phenoxy}-quinolin-7-yloxy)-butyric acid cyclopentyl ester]	< 1000
> 5000	> 5000	COc1cc2c(Oc3ccc(-c4noc(-c5ccccc5)n4)cc3)ccnc2cc1OCC[C@H](N)C(=O)OC1CCCC1 [Example 92, (S)-2-Amino-4-{6-methoxy-4-[4-(5-phenyl-[1,2,4]oxadiazol-3-yl)-phenoxy]-quinolin-7-yloxy}-butyric acid cyclopentyl ester]	> 5000
< 1000	< 1000	COc1cc2c(Oc3ccc(NC(=O)Nc4ccc5c(c4)CCC5)cc3)ccnc2cc1OCC[C@H](N)C(=O)OC1CCCC1 [Example 97, (S)-2-Amino-4-{4-[4-(3-indan-5-yl-ureido)-phenoxy]-6-methoxy-quinolin-7-yloxy}-butyric acid cyclopentyl ester]	< 1000
< 1000	< 1000	COc1cc2c(Oc3ccc(NC(=O)c4ccc(C(F)(F)F)cc4)cc3)ccnc2cc1OCC[C@@H](N)C(=O)OC1CCCC1 [Example 103, (R)-2-Amino-4-{6-methoxy-4-[4-(4-trifluoromethyl-benzoylamino)-phenoxy]-quinolin-7-yloxy}-butyric acid cyclopentyl ester]	< 1000
< 1000	< 1000	COc1cc2c(Oc3ccc(NC(=O)Nc4ccc(C(F)(F)F)cc4)cc3)ccnc2cc1OCC[C@@H](N)C(=O)OC1CCCC1 [Example 104, (R)-2-Amino-4-(6-methoxy-4-{4-[3-(4-trifluoromethyl-phenyl)-ureido]-phenoxy}-quinolin-7-yloxy)-butyric acid cyclopentyl ester]	< 1000
< 1000	< 1000	COc1cc2c(Oc3ccc(NC(=O)c4ccc(C(F)(F)F)cc4)cc3F)ccnc2cc1OCC[C@@H](N)C(=O)OC1CCCC1 [Example 106, (R)-2-Amino-4-{4-[2-fluoro-4-(4-trifluoromethyl-benzoylamino)-phenoxy]-6-methoxy-quinolin-7-yloxy}-butyric acid cyclopentyl ester]	< 1000
